This passage reports IC50, inhibition and Activity results from ChEMBL document CHEMBL4229423 (Bioorg Med Chem, 2018).

In assay [1] the target is T1, Sodium/glucose cotransporter 2 (Homo sapiens, UniProt P31639).
T1 sequence (P31639 whole entry): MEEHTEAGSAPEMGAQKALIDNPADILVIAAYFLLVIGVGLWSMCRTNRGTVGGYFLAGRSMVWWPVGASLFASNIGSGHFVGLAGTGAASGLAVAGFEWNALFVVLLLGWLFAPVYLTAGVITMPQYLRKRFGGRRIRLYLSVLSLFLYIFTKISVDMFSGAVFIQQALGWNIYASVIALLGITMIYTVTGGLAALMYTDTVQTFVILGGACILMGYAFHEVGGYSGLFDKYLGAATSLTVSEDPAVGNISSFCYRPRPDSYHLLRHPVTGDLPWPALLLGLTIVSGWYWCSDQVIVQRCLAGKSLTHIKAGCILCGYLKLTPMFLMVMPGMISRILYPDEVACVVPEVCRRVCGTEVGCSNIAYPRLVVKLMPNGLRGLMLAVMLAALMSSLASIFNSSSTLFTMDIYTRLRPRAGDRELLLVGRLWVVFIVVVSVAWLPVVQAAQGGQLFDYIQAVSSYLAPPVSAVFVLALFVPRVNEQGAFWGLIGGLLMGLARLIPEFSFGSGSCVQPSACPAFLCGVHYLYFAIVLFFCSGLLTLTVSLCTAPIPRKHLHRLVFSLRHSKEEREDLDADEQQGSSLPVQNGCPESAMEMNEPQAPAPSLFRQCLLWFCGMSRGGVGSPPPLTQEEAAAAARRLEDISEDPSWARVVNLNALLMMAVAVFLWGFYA
The assay is described as follows: Inhibition of SGLT2 (unknown origin).

Assay [2] has as its system Platelet. The assay can be described thus: Antiplatelet activity in rabbit platelet rich plasma assessed as inhibition of ADP-induced platelet aggregation at 0.1 mM preincubated for 5 mins followed by ADP addition measured up to 5 mins. As to conditions: Oryctolagus cuniculus. The format is functional.
Assay [3] concerns Platelet. The assay is described as follows: Antiplatelet activity in rabbit platelet rich plasma assessed as inhibition of ADP-induced platelet aggregation at 0.1 mM preincubated for 5 mins followed by ADP addition measured up to 5 mins in presence of NO scavenger carboxy-PTIO. The format is functional. As to conditions: Oryctolagus cuniculus.
For assay [4], the system named is Mus musculus. The assay can be described thus: Antihyperglycemic activity in fasting ICR mouse assessed as decrease in plasma glucose AUC (0 to 120 mins) at 20 mg/kg, po administered 30 mins prior to glucose challenge measured after 120 mins by OGTT relative to control. The assay is classed as functional. The arrangement: scale not given: the % may be the effect or the level left.

Assay [5] deals with Mus musculus. The assay is described as follows: Antidiabetic activity in ICR mouse assessed as increase in urinary glucose excretion by measuring urine glucose levels at 20 mg/kg, po administered 30 mins prior to glucose challenge measured after 15 mins. The format is functional.
Assay [6] relates to Mus musculus. The assay is described as follows: Antidiabetic activity in ICR mouse assessed as increase in urinary glucose excretion by measuring urine glucose levels at 20 mg/kg, po administered 30 mins prior to glucose challenge measured after 30 mins. The assay is classed as functional.
Assay [7] concerns Mus musculus. The assay is described as follows: Antidiabetic activity in ICR mouse assessed as increase in urinary glucose excretion by measuring urine glucose levels at 20 mg/kg, po administered 30 mins prior to glucose challenge measured after 60 mins. The assay is classed as functional.
Assay [8] has as its system Mus musculus. The assay can be described thus: Antidiabetic activity in ICR mouse assessed as increase in urinary glucose excretion by measuring urine glucose levels at 20 mg/kg, po administered 30 mins prior to glucose challenge measured after 120 mins. The format is functional.

In the case of `CCc1ccc(Cc2ccc3c(c2)[C@]2(OC3)O[C@H](CO)[C@@H](O)[C@H](O)[C@H]2O)cc1` [TOFOGLIFLOZIN ANHYDROUS], the IC50 (usually the point on the concentration scale where inhibition reaches its midpoint) in assay [1] was 4 nM.

On to `O=[N+]([O-])OCCOc1ccc(Cc2cc([C@@H]3O[C@H](CO)[C@@H](O)[C@H](O)[C@H]3O)ccc2Cl)cc1`, for which, in assay [2], the inhibition – broadly, the relative decrease from the control value, in per cent – at 100 µM came out at 11.6%.

Molecule `CCOc1ccc(Cc2cc([C@@H]3S[C@H](CO)[C@@H](O)[C@H](O)[C@H]3O)c(OC)cc2C)cc1` [LUSEOGLIFLOZIN] yielded an IC50 in assay [1] of 2.3 nM.

In the case of `O=[N+]([O-])OCCCCOc1ccc(Cc2cc([C@@H]3O[C@H](CO)[C@@H](O)[C@H](O)[C@H]3O)ccc2Cl)cc1`, in assay [2], the inhibition at 100 µM came to 14.1%.

On to `O=[N+]([O-])OCCCOc1ccc(Cc2cc([C@@H]3O[C@H](CO)[C@@H](O)[C@H](O)[C@H]3O)ccc2Cl)cc1`, for which the inhibition at 100 µM was determined as 14.4% in assay [2] and 3.64% in assay [3]. In addition, the Activity in assay [4] came out at 26.3%; in assay [5] it was 500 mg/dL; in assay [6] it was 2000 mg/dL; in assay [7], 1000 mg/dL; in assay [8], 500 mg/dL.

Molecule `OC[C@H]1O[C@@H](c2ccc(F)c(Cc3cc4ccccc4s3)c2)[C@H](O)[C@@H](O)[C@@H]1O` [IPRAGLIFLOZIN] showed an IC50 in assay [1] of 8.4 nM.
